Results taken from PubChem BioAssay (NCI).
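Test compounds were applied to cells in 96-well plates for 48 hours at 5 doses. At the TGI there is no net growth.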

Experiments:
Test in all cases: DTP human tumour cell line panel, 48 h
[1] = test system: KM12 colon
[2] = test system: NCI-H460 lung
[3] = test system: TK-10 renal
[4] = test system: SK-MEL-5 melanoma
[5] = test system: UO-31 renal
[6] = test system: NCI-H522 lung
[7] = test system: CAKI-1 renal
[8] = test system: MCF7 breast
[9] = test system: HCT-116 colon
[10] = test system: NCI-H226 lung
[11] = test system: OVCAR-3 ovarian
[12] = test system: 786-0 renal
[13] = test system: SF-295 CNS
[14] = test system: A549 NSCLC
[15] = test system: COLO 205 colon
[16] = test system: K-562 leukemia
[17] = test system: A498 renal
[18] = test system: HOP-62 NSCLC
[19] = test system: UACC-257 melanoma
[20] = test system: SNB-75 CNS
[21] = test system: OVCAR-4 ovarian
[22] = test system: MALME-3M melanoma
[23] = test system: MDA-MB-231 breast
[24] = test system: SF-268 CNS
[25] = test system: T-47D breast
[26] = test system: U251 CNS
[27] = test system: SK-OV-3 ovarian
[28] = test system: SN12C renal
[29] = test system: HCT-15 colon
[30] = test system: NCI-H23 lung
[31] = test system: MDA-MB-435
[32] = test system: DU-145 prostate
[33] = test system: M14 melanoma
[34] = test system: HOP-92 NSCLC
[35] = test system: MOLT-4 leukemia
[36] = test system: MDA-N
[37] = test system: PC-3 prostate
[38] = test system: SNB-19 CNS
[39] = test system: UACC-62 melanoma
[40] = test system: BT-549 breast
[41] = test system: SK-MEL-28 melanoma
[42] = test system: ACHN renal
[43] = test system: SK-MEL-2 melanoma
[44] = test system: HCC-2998 colon
[45] = test system: NCI/ADR-RES ovarian
[46] = test system: RPMI-8226 leukemia
[47] = test system: OVCAR-8 ovarian
[48] = test system: IGROV1 ovarian
[49] = test system: HL-60(TB) leukemia
[50] = test system: OVCAR-5 ovarian
[51] = test system: EKVX NSCLC
[52] = test system: SW-620 colon
[53] = test system: HT29 colon

With `C=CCOC(=O)C1=C(CCC[C@@H](C)O[Si](C)(C)C(C)(C)C)N=C(N)N2[C@H](CCO)CC[C@@H]12` as the compound, how does the TGI [1] read?
Its TGI is 24.1 µM.

And the TGI [2]?
The TGI was 31.5 µM.

And the TGI [3]?
Its TGI is 34.3 µM.

And the TGI [4]?
The TGI was 24.9 µM.

And the TGI [5]?
Its TGI is 29.6 µM.

And the TGI [6]?
Its TGI is 25.2 µM.

And the TGI [7]?
Its TGI is 26.1 µM.

And the TGI [8]?
The TGI was 25.7 µM.

And the TGI [9]?
The TGI was 28.6 µM.

And the TGI [10]?
The TGI was 33.9 µM.

What about the TGI [11] of the same compound?
The TGI was 23.5 µM.

What about the TGI [12] of the same compound?
The TGI was 33.8 µM.

What about the TGI [13] of the same compound?
The TGI was 25.2 µM.

What about the TGI [14] of the same compound?
Its TGI is 22 µM.

What about the TGI [15] of the same compound?
Its TGI is 22.9 µM.

What about the TGI [16] of the same compound?
Its TGI is 21.5 µM.

And the TGI [17]?
The TGI was 35.7 µM.

What about the TGI [18] of the same compound?
Its TGI is 27.4 µM.

What about the TGI [19] of the same compound?
The TGI was 38.7 µM.

And the TGI [20]?
The TGI was 32.5 µM.

And the TGI [21]?
The TGI was 23.2 µM.

What about the TGI [22] of the same compound?
The TGI was 34.9 µM.

And the TGI [23]?
The TGI was 29.6 µM.

And the TGI [24]?
The TGI was 31 µM.

What about the TGI [25] of the same compound?
Its TGI is 28.9 µM.

What about the TGI [26] of the same compound?
The TGI was 24.7 µM.

And the TGI [27]?
Its TGI is 27.2 µM.

And the TGI [28]?
Its TGI is 31.7 µM.

What about the TGI [29] of the same compound?
Its TGI is 32.5 µM.

What about the TGI [30] of the same compound?
The TGI was 32.4 µM.

What about the TGI [31] of the same compound?
Its TGI is 27.8 µM.

And the TGI [32]?
Its TGI is 28.6 µM.

What about the TGI [33] of the same compound?
Its TGI is 27.6 µM.

What about the TGI [34] of the same compound?
Its TGI is 27.2 µM.

And the TGI [35]?
Its TGI is 24.9 µM.

And the TGI [36]?
Its TGI is 32.9 µM.

What about the TGI [37] of the same compound?
Its TGI is 20.8 µM.

And the TGI [38]?
Its TGI is 29 µM.

What about the TGI [39] of the same compound?
The TGI was 33 µM.

And the TGI [40]?
Its TGI is 36.5 µM.

And the TGI [41]?
Its TGI is 31.3 µM.

What about the TGI [42] of the same compound?
The TGI was 40.1 µM.

What about the TGI [43] of the same compound?
Its TGI is 30.3 µM.

And the TGI [44]?
The TGI was 35.5 µM.

And the TGI [45]?
The TGI was 35 µM.

What about the TGI [46] of the same compound?
The TGI was 27.6 µM.

What does the source list for `O=C(OCc1ccccc1)N(CCCCN(CCCNCc1ccccc1)C(=O)OCc1ccccc1)CCCNCc1ccccc1`?
TGI [47]: 2.79 µM; TGI [1]: 1.6 µM; TGI [2]: 0.372 µM; TGI [3]: 3.43 µM; TGI [4]: > 100 µM; TGI [5]: 2.75 µM; TGI [7]: 2.93 µM; TGI [48]: 2.05 µM; TGI [8]: > 100 µM; TGI [49]: 0.507 µM; TGI [9]: 0.384 µM; TGI [10]: 2.07 µM; TGI [12]: 1.29 µM; TGI [13]: > 100 µM; TGI [15]: 0.33 µM; TGI [50]: 2.83 µM; TGI [19]: 1.92 µM; TGI [20]: 2.69 µM; TGI [22]: 3.29 µM; TGI [23]: 2.56 µM; TGI [25]: 3.57 µM; TGI [27]: > 100 µM; TGI [28]: 0.886 µM; TGI [29]: 1.17 µM; TGI [30]: 3.4 µM; TGI [31]: 0.335 µM; TGI [32]: 2.55 µM; TGI [51]: 2.94 µM; TGI [34]: 2.82 µM; TGI [36]: 0.983 µM; TGI [37]: 2.61 µM; TGI [38]: 1.11 µM; TGI [39]: 3.19 µM; TGI [41]: 3.08 µM; TGI [42]: 2.93 µM; TGI [43]: 2.27 µM; TGI [52]: 0.39 µM; TGI [44]: 0.933 µM; TGI [45]: 3.43 µM; TGI [46]: 0.605 µM; TGI [53]: 0.663 µM
